Series [1] concerns the target T1, ICAM-1 (CD54) on Molt3 cells (Homo sapiens, UniProt P05362).
T1 construct: host or cells: Molt3 human T-cell line
The series can be described thus: Antibody binding assay (FACS): anti-CD54 mAb binding to Molt3 T-cells. The following applies: for Fluorescence, % change from control of the medium fluorescence intensity: mAb CD54.

For another series, the system named is Molt3 cells. The series can be described thus: Cell metabolic assay (MTT). It is filed as cell-based, human. As to the method: After taking the photographs in Example 3 (and in some instances no photographs were taken), cell metabolic activity was assessed by an MTT assay. A 37.5 μl portion of MTT dye (purchased from SIGMA of St. Louis, Mo.), i.e., 3-[4,5-dimethyl thiazole-2yl]-2, 5-diphenyl tetrazolium bromide; thiazolyl blue) was added to each well, and incubated with the cells at 37° C. for about six hours. After incubation, a 250 μl quantity of a MTT solubilization solution (of a type that may be purchased from either Fischer Scientific of St. Louis, Mo. or BCD Labs of Lawrence, Kans.) was added to each well, and incubated with the cells at room temperature overnight. In the morning, the spectrophotometric absorption of each plate was determined at 570 nm in a microplate ELISA reader manufactured by Cambridge Technologies of Watertown, Mass., in order to assess cell viability as an indicator of potential peptide toxicity.

Another series addresses T2, ICAM-1 on Molt3 cells (Homo sapiens, UniProt P05362).
T2 construct: host or cells: Molt3 human T-cell line
The series can be described thus: Conformation modulator assay: binding of FITC-labeled RB-1-88 peptide to T-cells (FACS). The following applies: first peptide 4550 μM, then FITC-labeled RB-1-88 1.90 μM. As to the method: The antibody binding assay of Example 2 was twice repeated at a peptide concentration of 4550 μM, each time substituting a 455 nmol quantity of synthetic peptide selected from the group consisting of ICAM-based peptide SC-3-111 (Sequence ID No. 10) and LFA-based peptide LJCRF-4 (Sequence ID No. 16) in respective assays. Following incubation for 30 minutes at 37° C. after introduction of the first peptides, both incubated culture were supplemented by an additional quantity of FITC-labeled RB-1-88 (Sequence ID No. 19) peptide in a quantity sufficient to provide a 1.90 μM concentration in the cell/PBS solution.
Following addition of the RB-1-88 (Sequence ID No. 19) peptide, the mixture was incubated for 30 minutes at 4° C., washed three times with 500 μl PBS/BSA, resuspended in 500 μl PBS/BSA and immediately subjected to a flow cytometer analysis as before. Table 3 presents the results of this analysis, which are also depicted in FIGS. 8 (SC-3-111) and 9 (LJCRF-4).

The target of series [2] is T3, LFA-1 (CD11a) on Molt3 cells (Homo sapiens, UniProt P20701).
T3 construct: host or cells: Molt3 human T-cell line
T3 sequence (P20701 26-1170): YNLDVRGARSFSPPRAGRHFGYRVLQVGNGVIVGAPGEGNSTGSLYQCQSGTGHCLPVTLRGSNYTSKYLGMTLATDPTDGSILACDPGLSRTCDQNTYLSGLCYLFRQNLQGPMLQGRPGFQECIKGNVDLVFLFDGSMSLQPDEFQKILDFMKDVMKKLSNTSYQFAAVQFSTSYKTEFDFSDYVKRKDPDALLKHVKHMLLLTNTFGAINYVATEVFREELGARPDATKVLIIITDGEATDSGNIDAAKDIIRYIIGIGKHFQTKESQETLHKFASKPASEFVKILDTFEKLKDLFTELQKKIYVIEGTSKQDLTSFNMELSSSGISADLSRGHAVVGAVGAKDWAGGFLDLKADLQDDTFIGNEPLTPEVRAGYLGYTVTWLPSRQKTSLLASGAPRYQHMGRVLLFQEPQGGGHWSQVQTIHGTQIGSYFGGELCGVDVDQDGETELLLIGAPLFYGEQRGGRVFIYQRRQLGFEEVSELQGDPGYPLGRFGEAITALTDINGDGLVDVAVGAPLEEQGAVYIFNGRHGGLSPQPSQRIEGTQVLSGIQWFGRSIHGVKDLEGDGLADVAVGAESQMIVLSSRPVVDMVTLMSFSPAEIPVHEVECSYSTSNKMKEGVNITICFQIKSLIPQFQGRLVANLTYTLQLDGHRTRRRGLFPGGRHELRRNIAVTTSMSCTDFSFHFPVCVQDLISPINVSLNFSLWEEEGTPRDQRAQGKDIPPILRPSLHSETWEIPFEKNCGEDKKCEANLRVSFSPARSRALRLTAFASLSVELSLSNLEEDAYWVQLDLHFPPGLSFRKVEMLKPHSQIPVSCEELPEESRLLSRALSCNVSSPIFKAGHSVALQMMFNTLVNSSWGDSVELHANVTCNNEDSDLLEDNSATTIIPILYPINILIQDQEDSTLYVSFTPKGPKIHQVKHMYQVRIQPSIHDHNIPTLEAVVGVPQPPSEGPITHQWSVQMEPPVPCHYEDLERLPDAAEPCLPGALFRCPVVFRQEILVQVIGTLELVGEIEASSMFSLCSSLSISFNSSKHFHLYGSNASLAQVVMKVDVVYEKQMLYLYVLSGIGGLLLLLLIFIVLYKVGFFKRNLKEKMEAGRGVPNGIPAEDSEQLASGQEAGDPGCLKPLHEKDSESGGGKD
T3 sequence (P05107 23-769 partner): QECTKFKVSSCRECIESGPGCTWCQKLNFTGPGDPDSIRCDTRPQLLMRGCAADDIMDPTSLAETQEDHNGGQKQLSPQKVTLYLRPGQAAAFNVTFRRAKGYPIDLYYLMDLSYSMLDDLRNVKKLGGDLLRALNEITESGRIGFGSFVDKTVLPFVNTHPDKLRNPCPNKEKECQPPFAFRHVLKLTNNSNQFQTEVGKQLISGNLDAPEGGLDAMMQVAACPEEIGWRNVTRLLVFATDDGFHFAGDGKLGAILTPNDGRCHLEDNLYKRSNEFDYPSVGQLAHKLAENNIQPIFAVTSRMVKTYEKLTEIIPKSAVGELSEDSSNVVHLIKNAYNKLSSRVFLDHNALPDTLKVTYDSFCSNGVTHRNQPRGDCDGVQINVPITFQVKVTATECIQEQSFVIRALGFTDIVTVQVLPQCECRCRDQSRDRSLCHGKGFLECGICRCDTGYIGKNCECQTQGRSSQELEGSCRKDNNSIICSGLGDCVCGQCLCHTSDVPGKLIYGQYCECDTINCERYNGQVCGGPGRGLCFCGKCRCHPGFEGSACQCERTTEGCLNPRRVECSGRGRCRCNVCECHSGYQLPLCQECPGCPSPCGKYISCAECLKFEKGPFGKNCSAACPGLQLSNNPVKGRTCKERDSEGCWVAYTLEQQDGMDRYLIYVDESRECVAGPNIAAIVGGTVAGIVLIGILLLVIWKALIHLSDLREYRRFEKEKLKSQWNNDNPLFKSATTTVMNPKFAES
Briefly: Antibody binding assay (FACS): anti-CD11a mAb binding to Molt3 T-cells. The note with it: for Fluorescence, % change from control of the medium fluorescence intensity: mAb CD11a, average ± standard error; for blocking efficiency: single run (FIGS. 2 and 3). As to the method: A 1 ml quantity of the Molt3 inoculum was warmed to 37° C. and transferred by pipette into about 25 ml of a growth culture medium including RPMI 1640 lymphocyte growth medium (Fisher Scientific of St. Louis, Mo.) mixed with 10% by volume fetal calf serum, 100 units/ml penicillin, 100 μg/ml streptomycin and 2 mM glutamine. The inoculated culture was incubated for three to four days at 37° C. under a normal atmosphere having about 5% CO2 added thereto. This culture was capable of being maintained indefinitely by siphoning away the top (non-cell containing) layer and adding 50 ml (or more) of growth culture medium at intervals of three to four days.
An aqueous buffer solution including Dulbecco's phosphate buffered saline and bovine serum albumin ("PBS/BSA solution") was prepared for use, and included a mixture of 200 mg KH2 PO4, 1.15 g Na2 HPO4, 100 mg CaCl2, 200 mg KC1, 100 mg MgCl2.6H2 O, 8 g NaCl, with distilled water added to a final 1 liter volume at room temperature, thus, forming a "PBS" solution of pH 7.4 to which was added 0.5% by weight bovine serum albumin.
An aliquot of about 7 ml was removed from the incubated culture medium and subjected to washing with the PBS/BSA solution. The washing procedure was initiated by placing the aliquot in a centrifuge (Model GT422 from Jouan, distributed Piruscio & Assoc. of Manchester, Mo.) at 1400 rpm for 6.5 minutes to separate the cells from the growth medium. The supernatant fluid was decanted, a 5 ml portion of PBS/BSA solution was transferred by pipette into the pellet, and the mixture was again centrifuged as before. The resulting supernatant fluid was decanted and the cells from the pellet were resuspended in PBS/BSA solution at a titer of about 1×10^6 cells/ml. A 500 μl portion of the solution containing the resuspended cells was placed in a microcentrifuge (Marathon 13K/M from Fisher Scientific of St. Louis, Mo.) at 3500 rpm for six minutes, to provide a washed pellet.
[…] The cells were incubated with the peptide cocktail at 37° C. for 45 minutes.
After incubation with the peptide cocktail, several antibodies were successively mixed into the incubated solution. A 75 μl portion of anti-IgM solution (a mixture of 10 μl of goat anti-human IgM stock purchased from Jackson Immuno Research of Westgrove, Pa; and 65 μl of PBS/BSA solution) was added to the peptide cocktail for blocking of nonspecific binding of the secondary antibody. The resulting mixture was incubated for 10 minutes on ice. About 0.1 μg of a primary antibody including mouse IgG anti-human CD11a (purified according to conventional protocols at the University of Kansas Department of Pharmacology and Toxicology from an American Type Culture hybridoma cell line having Catalogue Number HB-202) was next stirred into the mixture, which was then incubated for 30 minutes at room temperature. The incubated mixture was placed in a microcentrifuge at 3500 rpm for six minutes to remove the cells from the mixture, and the cell pellet was washed two times by adding 500 μl aliquots of PBS/BSA solution and microfuging to remove non-bound antibodies from the cells as before. The resulting washed pellet was resuspended in 100 μl of a secondary antibody cocktail including 5 μl of fluorescein isothiocyanate ("FITC") labeled goat anti-mouse IgG (from CALTAG of South San Francisco, Calif.) and 95 μl of PBS/BSA solution. The resulting solution was incubated for 30 minutes at room temperature in the dark.
The incubated solution including the secondary antibody cocktail was microfuged at 3500 rpm for six minutes to remove the cells from the solution, and the cell pellet was washed two times with 500 μl portions of PBS/BSA solution, as before, to remove unbound antibodies. […]

Series [3] addresses Leucocyte Function Associated antigen-1 (LFA-1), on Molt3 human T-cells (human). Briefly: flow cytometry on Molt3 T-cells; control without peptide; FITC goat anti-mouse IgG secondary. Background: A flow cytometer gives signals particle by particle.
The target is the same in series [4]. Briefly: flow cytometry on Molt3 T-cells preincubated with SC-3-111 (run of FIG. 2); FITC goat anti-mouse IgG secondary.
For series [5] the target is unchanged. The series can be described thus: flow cytometry on Molt3 T-cells; peptide 4550 µM; probe antibody mouse IgG anti-human CD11a; average of 2 runs.
The mark [6] stands for this setting: peptide 4550 μM, average ± standard error.

Where no end group is shown, it is not given here.

T1 sequence (P05362 28-532): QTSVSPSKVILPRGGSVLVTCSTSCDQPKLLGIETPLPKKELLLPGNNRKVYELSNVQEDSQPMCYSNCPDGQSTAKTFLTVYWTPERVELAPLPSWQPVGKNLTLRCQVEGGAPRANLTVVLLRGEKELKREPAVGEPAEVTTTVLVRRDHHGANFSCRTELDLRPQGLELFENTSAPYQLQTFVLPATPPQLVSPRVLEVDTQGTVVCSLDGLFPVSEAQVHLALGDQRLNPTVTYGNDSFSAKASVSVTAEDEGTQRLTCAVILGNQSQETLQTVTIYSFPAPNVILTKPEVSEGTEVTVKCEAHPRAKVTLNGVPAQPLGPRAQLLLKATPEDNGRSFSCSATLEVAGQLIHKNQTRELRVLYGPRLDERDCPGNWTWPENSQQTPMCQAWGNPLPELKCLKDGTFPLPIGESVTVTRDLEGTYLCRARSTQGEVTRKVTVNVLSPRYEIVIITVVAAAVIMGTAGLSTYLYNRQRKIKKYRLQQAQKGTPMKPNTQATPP
T2 sequence (P05362 28-532): as above

With DLSYSLDDLRNVKKLGGDLLRALNE [LJCRF-4], the “Fluorescence, % change from control of the medium fluorescence intensity” value (“Fluorescence, % change from control” for short) in series [1] (peptide 2275 μM, average ± standard error) is recorded as “+3 ± 1%”; in series [1] (peptide 6825 μM), “+521%”. Moreover, the “curve shift / median peak enhancement” value in series [1] (single run (FIG. 4), 4550 μM, anti-ICAM-1 mAb) is listed as “+447%”. Also, the “MTT % Viability” value in the series on Molt3 cells (115 μM) amounted to 99%; in the series on Molt3 cells (115 μM, listed as SC-3-223), 103%; with Molt3 cells (230 μM) it was 101%; in the series with Molt3 cells (230 μM, listed as SC-3-223), 109%; in the series on Molt3 cells (460 μM) it was 94%; in the series on Molt3 cells (460 μM, listed as SC-3-223), 112%. Moreover, the “MTT % Viability” value in the series on Molt3 cells (910 μM) is listed as 60%; in the series on Molt3 cells (910 μM, listed as SC-3-223), 108%; in the series with Molt3 cells (1820 μM) it was 11%; with Molt3 cells (1820 μM, listed as SC-3-223) it was 75%. For the same molecule, on ICAM-1 on Molt3 cells, the “FACS Analysis (RB-1-88 binding), shift from control” value is given as “+145%”.
Consider DQPKLLGIETPLPKKELLLPGNNRK [LJCRF-2], for which the entries for the “Fluorescence, % change from control” value in series [2] (peptide 2275 μM) and in series [2] (peptide 4550 μM) were “+48 ± 8%” and -43 ± 7%, respectively. For the same molecule, the “MTT % Viability” value is 38% with Molt3 cells (230 μM); 38% with Molt3 cells (460 μM); 38% in the series with Molt3 cells (910 μM); 43% with Molt3 cells (1820 μM); 38% with Molt3 cells (concentration not given).
For the molecule GVDVDQDGETELIGAPLFYGEQRG [LJCRF-5], the “Fluorescence, % change from control” value in series [1] (setting [6]) is -17%. Further, the “MTT % Viability” value is listed as 95% in the series with Molt3 cells (115 μM); 84% in the series with Molt3 cells (230 μM); 81% with Molt3 cells (460 μM); 52% in the series with Molt3 cells (910 μM); 20% in the series on Molt3 cells (1820 μM). Besides, in the series on Molt3 cells (1820 μM), the “metabolic activity in MTT assay” value was “decrease in metabolic activity”.
ITDGEATDSGNIDAAKDIIYIIGI [LJCRF-6]: the “Fluorescence, % change from control” value in series [1] (setting [6]) is listed as -4%.
In the case of KELLLPGNNRKVYELSNVQEDSQP [LJCRF-3], the “Fluorescence, % change from control” value in series [2] (peptide 4550 μM) is reported as -13 ± 19%.
Regarding LPRGGSVLVTG [MC-1-80], the “metabolic activity in MTT assay” value in the series on Molt3 cells (910 μM) is given as “cellular respiration was enhanced”.
Regarding QTSVSPSKVI [SC-3-111], the “Fluorescence, % change from control” value in series [2] (peptide 2275 μM) is recorded as -12 ± 4%; in series [2] (peptide 4550 μM) it was -29 ± 2%. For the same molecule, the “% change of median peak from control” value in series [2] (single run (FIG. 2), 4550 μM, anti-CD11a) was -51%. The blocking efficiency in series [2] (4550 μM, anti-CD11a) is given as 51%. Moreover, the “MTT % Viability” value in the series on Molt3 cells (230 μM) was 93%; in the series with Molt3 cells (460 μM), 95%; in the series with Molt3 cells (910 μM) it was 89%; with Molt3 cells (1820 μM), 69%; in the series on Molt3 cells (concentration not given), 85%.
Take QTSVSPSKVILPRGGSVLVTG [LJCRF-1]: the “Fluorescence, % change from control” value is recorded as -12 ± 2% in series [2] (peptide 2275 μM) and -29 ± 3% in series [2] (peptide 4550 μM). In series [2] (4550 μM, anti-CD11a), this molecule had a blocking efficiency of 65%. Also, the “MTT % Viability” value is on record as 93% with Molt3 cells (460 μM), 92% in the series on Molt3 cells (910 μM) and 66% in the series on Molt3 cells (1820 μM).
On to “mouse IgG anti-human CD11a (from American Type Culture hybridoma cell line HB-202) (antibody)”, for which the median peak fluorescence intensity (fluorescence intensity) was found to be 264 in series [3] and 129 in series [4].

B1: LJCRF-3 (peptide)
peptide: KELLLPGNNRKVYELSNVQEDSQP
Molecule B1 had a % change from control of the median fluorescence intensity (% change from control) in series [5] of -13.
